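The compound was tested at five concentrations on cells cultured in 96-well plates, with a 48-hour exposure period. At the GI50, growth is halved.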 Calls of active or inactive are those of the source. Rule as the data show it: active = GI50 up to about 1.1 µM and inactive = higher.
Key:
Experiment in all cases: NCI tumour cell line growth inhibition, 48 h
[1] = system: NCI-H226
[2] = system: CCRF-CEM
[3] = system: HCT-116
[4] = system: UO-31
[5] = system: CAKI-1
[6] = system: UACC-62
[7] = system: LXFL 529
[8] = system: HT-29
[9] = system: HCT-15
[10] = system: SF-295
[11] = system: HL-60
[12] = system: NCI-H460
[13] = system: M19-MEL
[14] = system: SF-539
[15] = system: NCI-H23
[16] = system: 786-0
[17] = system: SN12C
[18] = system: MCF7
[19] = system: DU-145
[20] = system: MDA-MB-231

CN(Cc1ccccc1)C1(N(C)Cc2ccccc2)CC1
GI50 [1]: > 100 µM (inactive) | GI50 [2]: > 100 µM (inactive) | GI50 [3]: > 100 µM (inactive) | GI50 [4]: > 100 µM (inactive) | GI50 [5]: > 100 µM (inactive) | GI50 [6]: > 100 µM (inactive) | GI50 [7]: > 100 µM (inactive) | GI50 [8]: > 100 µM (inactive) | GI50 [9]: > 100 µM | GI50 [10]: > 100 µM (inactive) | GI50 [11]: > 100 µM (inactive) | GI50 [12]: > 100 µM (inactive) | GI50 [13]: > 100 µM (inactive) | GI50 [14]: > 100 µM (inactive) | GI50 [15]: > 100 µM (inactive) | GI50 [16]: > 100 µM (inactive) | GI50 [17]: > 100 µM (inactive)

COC12C=CC(CC1)c1c(O)ccc(O)c12 (stereo unspecified)
GI50 [1]: 39.1 µM (inactive) | GI50 [2]: 20.6 µM (inactive) | GI50 [3]: 40.7 µM (inactive) | GI50 [4]: > 80.7 µM (inactive) | GI50 [5]: > 80.9 µM (inactive) | GI50 [6]: 27.3 µM (inactive) | GI50 [7]: 25.4 µM (inactive) | GI50 [8]: 64.9 µM (inactive) | GI50 [9]: 29.7 µM | GI50 [10]: > 90.8 µM (inactive) | GI50 [11]: 2.39 µM (inactive) | GI50 [12]: 52.8 µM (inactive) | GI50 [13]: 22.5 µM (inactive) | GI50 [14]: > 100 µM (inactive) | GI50 [15]: > 86.1 µM (inactive) | GI50 [16]: > 64.9 µM (inactive) | GI50 [17]: 59.3 µM (inactive)

CCOC1c2cc(C(C)C)c(O)c(O)c2[C@@]23CCCC(C)(C)C2C1OC3=O (stereo partly specified)
GI50 [1]: > 100 µM (inactive) | GI50 [2]: 47.4 µM (inactive) | GI50 [3]: > 100 µM (inactive) | GI50 [4]: 35.8 µM (inactive) | GI50 [5]: > 100 µM (inactive) | GI50 [6]: 83.2 µM (inactive) | GI50 [7]: > 100 µM (inactive) | GI50 [8]: > 100 µM (inactive) | GI50 [9]: 91 µM | GI50 [10]: > 100 µM (inactive) | GI50 [11]: 93.1 µM (inactive) | GI50 [12]: > 100 µM (inactive) | GI50 [13]: > 100 µM (inactive) | GI50 [14]: > 100 µM (inactive) | GI50 [15]: > 100 µM (inactive) | GI50 [16]: > 100 µM (inactive) | GI50 [17]: 94 µM (inactive)

COc1ccc2nc3ccccc3c(NCCCCCCN(CCCl)CCCl)c2c1
GI50 [1]: 0.25 µM (active) | GI50 [2]: 0.0107 µM (active) | GI50 [3]: 0.0299 µM (active) | GI50 [18]: 10 nM (active) | GI50 [4]: 0.123 µM (active) | GI50 [19]: 81.7 nM (active) | GI50 [5]: 0.0353 µM (active) | GI50 [6]: 0.0628 µM (active) | GI50 [7]: 0.107 µM (active) | GI50 [8]: 0.0248 µM (active) | GI50 [9]: 0.0577 µM | GI50 [20]: 486 nM (active) | GI50 [10]: 0.0767 µM (active) | GI50 [11]: 0.0122 µM (active) | GI50 [12]: 0.0346 µM (active) | GI50 [13]: 0.132 µM (active) | GI50 [14]: 0.215 µM (active) | GI50 [15]: 0.15 µM (active) | GI50 [16]: 0.0161 µM (active) | GI50 [17]: 0.0348 µM (active)
